Test results taken from US11351178B2, “Selective HDAC6 inhibitors” (ITALFARMACO S.P.A., priority 2017, dated 2022).

Columns and labels:
recombinant human HDAC6 = molecular target: T1, recombinant human HDAC6 (Homo sapiens, UniProt Q9UBN7); test: Enzymatic screening on recombinant human HDAC6; assay type: biochemical; settings: Table 2; read-out: HDAC6 IC50
T1 sequence (Q9UBN7 1-1215): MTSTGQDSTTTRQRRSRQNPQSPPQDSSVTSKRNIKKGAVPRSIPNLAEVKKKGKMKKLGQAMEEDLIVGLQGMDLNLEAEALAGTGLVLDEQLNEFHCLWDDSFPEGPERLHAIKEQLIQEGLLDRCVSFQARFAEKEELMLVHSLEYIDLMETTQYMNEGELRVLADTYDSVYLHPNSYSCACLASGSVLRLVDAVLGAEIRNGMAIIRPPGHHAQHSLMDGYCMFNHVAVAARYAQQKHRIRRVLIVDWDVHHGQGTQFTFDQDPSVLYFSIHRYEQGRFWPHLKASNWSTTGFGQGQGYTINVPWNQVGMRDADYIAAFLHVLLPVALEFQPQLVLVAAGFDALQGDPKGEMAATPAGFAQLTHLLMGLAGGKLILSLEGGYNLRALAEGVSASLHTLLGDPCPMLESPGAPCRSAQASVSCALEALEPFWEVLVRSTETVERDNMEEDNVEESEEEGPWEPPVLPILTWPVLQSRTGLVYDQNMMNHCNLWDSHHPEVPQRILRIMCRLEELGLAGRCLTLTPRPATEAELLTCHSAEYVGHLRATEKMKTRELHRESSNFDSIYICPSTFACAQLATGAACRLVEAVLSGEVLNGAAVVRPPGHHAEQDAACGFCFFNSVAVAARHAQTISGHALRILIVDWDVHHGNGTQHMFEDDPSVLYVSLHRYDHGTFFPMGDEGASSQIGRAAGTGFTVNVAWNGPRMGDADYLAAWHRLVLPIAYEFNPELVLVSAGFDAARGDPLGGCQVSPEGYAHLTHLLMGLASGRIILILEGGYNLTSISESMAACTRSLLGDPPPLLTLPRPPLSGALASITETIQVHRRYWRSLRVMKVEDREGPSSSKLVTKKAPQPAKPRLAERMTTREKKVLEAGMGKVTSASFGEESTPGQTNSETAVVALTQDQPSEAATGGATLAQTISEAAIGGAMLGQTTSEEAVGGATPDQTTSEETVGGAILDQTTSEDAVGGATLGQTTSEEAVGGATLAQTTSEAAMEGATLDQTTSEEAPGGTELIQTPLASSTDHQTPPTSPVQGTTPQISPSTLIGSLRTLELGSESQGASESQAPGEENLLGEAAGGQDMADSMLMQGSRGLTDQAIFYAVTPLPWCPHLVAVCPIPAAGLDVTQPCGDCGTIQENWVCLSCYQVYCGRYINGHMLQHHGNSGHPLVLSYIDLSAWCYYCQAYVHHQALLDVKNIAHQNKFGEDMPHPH
In short: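 Step one: pre-incubate recombinant human HDAC with test compound at 30 °C, with duration set per isoform. Step two: add fluorogenic-type acetyl-lysine substrate (FLUOR DE LYS, its Green variant, or trifluoroacetyl-L-lysine), 2× concentrated in Tris-HCl pH 8 buffer with NaCl, Tween-20 and glycerol. Step three: react at 30 °C.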

[1] = Stability in human plasma; assay type: in vitro ADME; settings: after 4 hours, 37° C.
Protocol: In order to evaluate the stability to circulating enzymes, test compounds were incubated in human and rat plasma at 37° C. in a thermostated oscillating bath. Each test compound was incubated at μM (50 μM when the samples were analysed by UV/HPLC, 1 or 2 μM when the samples were analysed by LC-MS/MS) concentration for 0, 15, 30 min and 1, 2 and 4 hours. The reaction was stopped placing tubes on ice bath and adding acidified acetonitrile. After centrifugation for 10 minutes at 14000 rpm, an aliquot of the supernatant was diluted with water, filtered with 0.45 μm syringe filters and injected in HPLC-UV or in LC-MS/MS. The percentages of amount remaining at the various times of incubation with respect to initial amount were calculated. The half-life in plasma was also calculated.

[2] = Stability to Phase I metabolism in human S9 liver fraction; assay type: in vitro ADME; settings: human, 90 min, pH 7.4
Protocol: Test compounds were incubated in rat and human liver S9 fraction at 37° C. up to 90 minutes in order to evaluate their stability to Phase I metabolism by hepatic enzymes. […] The reaction was stopped placing samples on ice bath and adding acidified acetonitrile. After centrifugation (10 minutes at 14000 rpm) an aliquot of the supernatant was diluted water, filtered with 0.45 μm regenerated cellulose syringe filters and injected in HPLC-UV or in LC-MS/MS. The percentages of the amount remaining at the various incubation times with respect to the initial amount were calculated. The intrinsic clearance was also calculated.

Stability in rat plasma = assay type: in vitro ADME; settings: after 4 hours, 37° C.
In short: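 Compounds incubated at 37° C in rat or human plasma at 50 μM (UV/HPLC) or 1 or 2 μM (LC-MS/MS) for 0–4 h. Reaction stopped with acidified acetonitrile on ice; percent remaining versus initial amount and plasma half-life calculated.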

[3] = Stability to Phase I metabolism in rat S9 liver fraction; assay type: in vitro ADME; settings: after 90 min, 37° C.
In short: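 Compounds were incubated with rat or human liver S9 fraction at 37 °C for up to 90 min. Reactions were quenched on ice with acidified acetonitrile and analysed by HPLC-UV or LC-MS/MS. Percent remaining versus time zero and intrinsic clearance were calculated.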

Row | SMILES | IC50 (recombinant human HDAC6) [nM] | residual percentage in human plasma [1] [%] | residual percentage in human S9 fraction [2] [%] | residual percentage in rat plasma (Stability in rat plasma) [%] | residual percentage in rat S9 fraction [3] [%]
1 | CCN(CC)Cc1ccc(-c2nnc(Sc3c(F)cc(C(=O)NO)cc3F)n2C)o1 [comp. 211, 4-[[5-[5-(diethylaminomethyl)-2-furyl]-4-methyl-1,2,4-triazol-3-yl]sulfanyl]-3,5-difluoro-benzenecarbohydroxamic acid] | 8 | 76 | 59 | 86 | 67
2 | O=C(NO)c1cc(F)c(Cc2noc(-c3ccccc3)n2)c(F)c1 [compound 194, 3,5-difluoro-N-hydroxy-4-((5-phenyl-1,2,4-oxadiazol-3-yl)methyl)benzamide] | 11 | 99 | 29 | 89 | 3
3 | O=C(NO)c1ccc(Sc2nnc(-c3ccccc3)o2)cc1 [comp. 188, 4-[(5-phenyl-1,3,4-oxadiazol-2-yl)sulfanyl]benzenecarbohydroxamic acid] | 7 | 90 | 49 | 93 | 7
4 | O=C(NO)c1cc(F)c(Sc2nnc(-c3cccnc3)s2)c(F)c1 [comp. 191, 3,5-difluoro-N-hydroxy-4-((5-(pyridin-3-yl)-1,3,4-thiadiazol-2-yl)thio)benzamide] | 22 | 93 | 42 | 92 | 35
5 | Cn1c(Sc2c(F)cc(C(=O)NO)cc2F)nnc1-c1ccco1 [comp. 199, 3,5-difluoro-4-[[5-(2-furyl)-4-methyl-1,2,4-triazol-3-yl]sulfanyl]benzenecarbohydroxamic acid] | 6 | 90 | 75 | 92 | 57
6 | O=C(NO)c1ccc(Cc2noc(-c3ccnc(N4CCOCC4)c3)n2)cc1 [compound 193, 4-[[5-(2-morpholino-4-pyridyl)-1,2,4-oxadiazol-3-yl]methyl]benzenecarbohydroxamic acid] | 6 | 100 | 71 | 81 | 63
7 | CN(C)Cc1ccc(-c2nnc(Sc3c(F)cc(C(=O)NO)cc3F)n2C)o1 [comp. 206, 4-[[5-[5-[(dimethylamino)methyl]-2-furyl]-4-methyl-1,2,4-triazol-3-yl]sulfanyl]-3,5-difluoro-benzenecarbohydroxamic acid] | 7 | 92 | 97 | 88 | 50
8 | O=C(NO)c1cc(F)c(Sc2nnc(-c3cncc(Br)c3)s2)c(F)c1 [compound 196, 4-[[5-(5-bromo-3-pyridyl)-1,3,4-thiadiazol-2-yl]sulfanyl]-3,5-difluoro-benzenecarbohydroxamic acid] | 53 | 89 | 26 | 99 | 23
